Calls of active or inactive are those of the source. The rule behind the calls is not given here.
Key:
[1] = target: Tyrosine-protein kinase ABL1 (Homo sapiens, UniProt P00519); experiment: Inhibition of ABL Lys1 labeling site in human A-375 cells at 0.05 uM by KiNativ Profiling analysis relative to control; assay type: cell-based
[2] = target: Activin receptor type-1-like (Homo sapiens) (UniProt P37023); experiment: Inhibition of ACVRL1 (unknown origin) at 10 uM by Ambit Kinomescan binding assay
[3] = target: Tyrosine-protein kinase JAK1 (Homo sapiens) (UniProt P23458); experiment: Inhibition of JAK1 domain2 Lys1 labeling site in human A-375 cells at 0.05 uM by KiNativ Profiling analysis relative to control; assay type: cell-based
[4] = Inhibition of […] ATP labeling site in human Huh-7 cells at 1 uM by KiNativ Profiling analysis relative to control; conditions: condition cancer
[5] = target: T1, Phosphatidylinositol 5-phosphate 4-kinase type-2 gamma (Homo sapiens) (UniProt Q8TBX8); experiment: Inhibition of PIP5K2C ATP labeling site harbouring VKELPTLKDMDFLNK in human Huh-7 cells at 1 uM by KiNativ Profiling analysis relative to control; assay type: cell-based
T1 sequence (whole entry): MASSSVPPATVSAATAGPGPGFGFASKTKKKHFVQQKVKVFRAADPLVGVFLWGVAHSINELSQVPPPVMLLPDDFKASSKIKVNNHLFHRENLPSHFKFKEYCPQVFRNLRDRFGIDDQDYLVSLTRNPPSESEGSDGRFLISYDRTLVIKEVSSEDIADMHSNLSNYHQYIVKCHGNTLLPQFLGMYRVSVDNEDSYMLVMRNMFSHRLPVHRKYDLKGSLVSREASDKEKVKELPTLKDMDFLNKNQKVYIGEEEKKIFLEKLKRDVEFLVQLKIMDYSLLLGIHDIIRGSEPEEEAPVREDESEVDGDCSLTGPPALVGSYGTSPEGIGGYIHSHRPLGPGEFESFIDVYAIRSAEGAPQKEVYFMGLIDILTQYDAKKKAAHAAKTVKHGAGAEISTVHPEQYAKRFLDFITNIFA

[6] = target: 5'-AMP-activated protein kinase catalytic subunit alpha-1 (Homo sapiens) (UniProt Q13131); experiment: Inhibition of AMPKa1 ATP Loop labeling site in human Huh-7 cells at 1 uM by KiNativ Profiling analysis relative to control; assay type: cell-based
[7] = target: Serine/threonine-protein kinase 38-like (Homo sapiens) (UniProt Q9Y2H1); experiment: Inhibition of NDR2 Lys2 labeling site in human A-375 cells at 5 uM by KiNativ Profiling analysis relative to control; assay type: cell-based
[8] = target: T2, Dual specificity mitogen-activated protein kinase kinase 3 (Homo sapiens) (UniProt P46734); experiment: Inhibition of MAP2K3 Lys2 labeling site in human A-375 cells at 0.5 uM by KiNativ Profiling analysis relative to control; assay type: cell-based
T2 sequence (whole entry): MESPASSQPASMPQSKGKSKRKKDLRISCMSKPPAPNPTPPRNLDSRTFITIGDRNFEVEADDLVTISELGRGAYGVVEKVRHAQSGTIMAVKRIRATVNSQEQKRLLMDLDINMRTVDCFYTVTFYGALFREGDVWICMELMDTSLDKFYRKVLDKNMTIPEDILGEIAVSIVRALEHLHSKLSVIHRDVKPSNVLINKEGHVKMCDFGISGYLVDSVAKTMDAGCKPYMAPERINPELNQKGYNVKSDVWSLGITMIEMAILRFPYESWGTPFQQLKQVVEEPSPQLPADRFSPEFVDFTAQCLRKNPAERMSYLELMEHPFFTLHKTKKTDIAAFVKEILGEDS

[9] = target: Fibroblast growth factor receptor 4 (Homo sapiens) (UniProt P22455); experiment: Inhibition of FGFR4 (unknown origin) at 1 uM by Ambit Kinomescan binding assay relative to control; values are per cent of control
[10] = target: Ephrin type-A receptor 6 (Homo sapiens) (UniProt Q9UF33); experiment: Inhibition of EPHA6 (unknown origin) at 1 uM by Ambit Kinomescan binding assay relative to control; values are per cent of control
[11] = target: T3, Mitogen-activated protein kinase kinase kinase 5 (Homo sapiens) (UniProt Q99683); experiment: Inhibition of ASK1 (unknown origin) at 1 uM by Ambit Kinomescan binding assay relative to control
T3 sequence (whole entry): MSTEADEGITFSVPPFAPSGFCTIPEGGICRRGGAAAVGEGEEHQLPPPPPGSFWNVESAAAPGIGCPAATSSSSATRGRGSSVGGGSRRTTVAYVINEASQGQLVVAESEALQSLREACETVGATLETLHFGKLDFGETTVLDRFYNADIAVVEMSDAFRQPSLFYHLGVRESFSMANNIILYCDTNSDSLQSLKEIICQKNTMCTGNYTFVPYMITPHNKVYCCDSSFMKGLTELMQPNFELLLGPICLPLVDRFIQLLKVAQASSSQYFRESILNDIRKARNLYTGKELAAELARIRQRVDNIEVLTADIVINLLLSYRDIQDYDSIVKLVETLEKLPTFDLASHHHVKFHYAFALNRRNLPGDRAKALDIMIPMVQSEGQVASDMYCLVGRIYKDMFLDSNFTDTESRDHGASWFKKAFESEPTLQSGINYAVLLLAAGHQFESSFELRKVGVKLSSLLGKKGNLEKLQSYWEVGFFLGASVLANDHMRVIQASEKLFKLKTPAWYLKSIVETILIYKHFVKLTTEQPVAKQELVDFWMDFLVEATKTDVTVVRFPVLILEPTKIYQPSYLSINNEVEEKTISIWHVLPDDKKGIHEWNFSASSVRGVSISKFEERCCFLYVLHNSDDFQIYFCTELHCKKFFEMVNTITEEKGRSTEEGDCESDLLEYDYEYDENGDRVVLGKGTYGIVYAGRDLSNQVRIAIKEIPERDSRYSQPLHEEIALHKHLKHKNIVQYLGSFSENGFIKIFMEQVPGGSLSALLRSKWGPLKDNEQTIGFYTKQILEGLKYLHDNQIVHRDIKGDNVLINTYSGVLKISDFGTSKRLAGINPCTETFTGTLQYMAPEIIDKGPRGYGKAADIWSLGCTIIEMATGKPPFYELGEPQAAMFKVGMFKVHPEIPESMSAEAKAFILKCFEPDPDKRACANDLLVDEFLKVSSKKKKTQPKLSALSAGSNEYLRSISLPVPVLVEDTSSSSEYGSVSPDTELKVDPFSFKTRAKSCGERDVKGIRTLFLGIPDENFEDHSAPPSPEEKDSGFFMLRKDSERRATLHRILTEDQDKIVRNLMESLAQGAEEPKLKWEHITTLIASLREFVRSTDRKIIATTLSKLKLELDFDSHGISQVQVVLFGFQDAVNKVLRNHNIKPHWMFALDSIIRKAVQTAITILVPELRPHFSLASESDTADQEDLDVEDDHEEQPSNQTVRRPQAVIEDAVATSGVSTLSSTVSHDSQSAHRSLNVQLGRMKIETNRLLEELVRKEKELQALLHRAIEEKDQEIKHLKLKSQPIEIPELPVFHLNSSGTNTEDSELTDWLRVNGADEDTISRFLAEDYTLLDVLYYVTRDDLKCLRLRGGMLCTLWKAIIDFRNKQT

Ephrin type-A receptor 6 (Homo sapiens), sequence (Q9UF33 whole entry): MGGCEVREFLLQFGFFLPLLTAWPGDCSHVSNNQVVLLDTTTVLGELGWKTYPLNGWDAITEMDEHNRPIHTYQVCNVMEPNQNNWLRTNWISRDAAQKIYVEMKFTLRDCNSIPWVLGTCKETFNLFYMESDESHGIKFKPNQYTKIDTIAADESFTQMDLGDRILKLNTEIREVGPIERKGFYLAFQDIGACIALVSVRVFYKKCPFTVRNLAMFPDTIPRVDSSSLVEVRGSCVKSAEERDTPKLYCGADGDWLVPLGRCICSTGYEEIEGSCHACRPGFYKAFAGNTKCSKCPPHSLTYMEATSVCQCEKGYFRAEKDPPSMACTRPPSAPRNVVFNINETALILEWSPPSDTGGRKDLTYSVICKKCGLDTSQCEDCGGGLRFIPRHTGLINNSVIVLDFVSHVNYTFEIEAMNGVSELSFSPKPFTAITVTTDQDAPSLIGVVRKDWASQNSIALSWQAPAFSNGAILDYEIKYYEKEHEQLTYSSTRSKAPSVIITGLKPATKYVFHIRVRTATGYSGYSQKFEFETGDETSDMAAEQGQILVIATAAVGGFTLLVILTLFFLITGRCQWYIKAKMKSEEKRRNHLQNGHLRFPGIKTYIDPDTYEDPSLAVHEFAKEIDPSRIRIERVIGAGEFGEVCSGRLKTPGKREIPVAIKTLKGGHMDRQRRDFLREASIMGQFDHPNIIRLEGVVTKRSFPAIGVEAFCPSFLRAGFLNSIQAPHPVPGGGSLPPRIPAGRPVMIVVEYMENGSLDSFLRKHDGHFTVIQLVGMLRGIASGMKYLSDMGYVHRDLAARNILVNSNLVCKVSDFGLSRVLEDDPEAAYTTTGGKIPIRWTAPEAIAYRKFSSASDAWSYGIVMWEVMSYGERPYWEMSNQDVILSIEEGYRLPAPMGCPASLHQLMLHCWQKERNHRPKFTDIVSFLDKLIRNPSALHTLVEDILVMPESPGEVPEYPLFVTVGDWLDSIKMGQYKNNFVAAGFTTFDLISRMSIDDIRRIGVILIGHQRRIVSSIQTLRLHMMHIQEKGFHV
Tyrosine-protein kinase ABL1, sequence (P00519 whole entry): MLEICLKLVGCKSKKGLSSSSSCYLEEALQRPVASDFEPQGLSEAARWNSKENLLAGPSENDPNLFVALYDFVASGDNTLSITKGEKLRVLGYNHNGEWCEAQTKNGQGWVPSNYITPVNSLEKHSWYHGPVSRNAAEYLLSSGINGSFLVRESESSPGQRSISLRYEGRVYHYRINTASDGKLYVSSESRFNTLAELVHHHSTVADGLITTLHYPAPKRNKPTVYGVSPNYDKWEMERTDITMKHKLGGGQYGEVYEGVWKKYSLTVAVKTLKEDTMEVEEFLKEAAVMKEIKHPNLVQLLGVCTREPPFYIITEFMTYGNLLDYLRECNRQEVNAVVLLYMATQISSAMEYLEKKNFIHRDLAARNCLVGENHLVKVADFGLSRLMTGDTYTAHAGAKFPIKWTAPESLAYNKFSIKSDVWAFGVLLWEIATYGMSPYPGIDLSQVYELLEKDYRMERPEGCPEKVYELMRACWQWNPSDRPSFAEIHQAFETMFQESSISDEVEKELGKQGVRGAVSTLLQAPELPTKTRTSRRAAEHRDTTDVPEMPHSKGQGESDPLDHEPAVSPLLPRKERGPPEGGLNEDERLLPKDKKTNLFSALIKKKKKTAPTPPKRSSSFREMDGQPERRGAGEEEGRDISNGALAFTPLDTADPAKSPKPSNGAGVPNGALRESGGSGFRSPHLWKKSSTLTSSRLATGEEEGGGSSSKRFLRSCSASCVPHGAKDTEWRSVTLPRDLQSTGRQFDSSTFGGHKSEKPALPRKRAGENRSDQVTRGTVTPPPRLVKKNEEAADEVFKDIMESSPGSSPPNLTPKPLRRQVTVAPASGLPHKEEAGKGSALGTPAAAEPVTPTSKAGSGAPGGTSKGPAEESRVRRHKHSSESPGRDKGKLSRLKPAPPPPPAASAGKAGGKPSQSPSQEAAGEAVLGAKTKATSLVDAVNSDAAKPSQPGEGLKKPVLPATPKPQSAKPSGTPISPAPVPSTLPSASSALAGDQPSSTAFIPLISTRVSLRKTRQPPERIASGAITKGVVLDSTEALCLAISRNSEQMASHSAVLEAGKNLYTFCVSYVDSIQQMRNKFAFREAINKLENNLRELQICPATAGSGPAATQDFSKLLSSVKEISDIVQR
Serine/threonine-protein kinase 38-like (Homo sapiens), sequence (Q9Y2H1 2-464 limits assumed): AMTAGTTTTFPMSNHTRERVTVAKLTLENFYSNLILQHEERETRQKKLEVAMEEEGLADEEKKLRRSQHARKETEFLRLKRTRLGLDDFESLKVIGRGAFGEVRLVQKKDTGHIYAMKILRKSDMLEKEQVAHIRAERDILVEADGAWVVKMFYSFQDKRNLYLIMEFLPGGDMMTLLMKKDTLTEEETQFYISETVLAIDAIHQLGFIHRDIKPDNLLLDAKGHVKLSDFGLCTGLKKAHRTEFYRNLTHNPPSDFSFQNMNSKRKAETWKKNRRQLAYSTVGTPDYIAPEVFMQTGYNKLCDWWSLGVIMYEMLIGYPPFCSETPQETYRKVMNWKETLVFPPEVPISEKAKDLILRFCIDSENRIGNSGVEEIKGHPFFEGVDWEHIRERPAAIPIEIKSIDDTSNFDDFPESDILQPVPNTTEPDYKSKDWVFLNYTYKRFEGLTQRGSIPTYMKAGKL
Activin receptor type-1-like (Homo sapiens), sequence (P37023 whole entry, the tested form may be a part): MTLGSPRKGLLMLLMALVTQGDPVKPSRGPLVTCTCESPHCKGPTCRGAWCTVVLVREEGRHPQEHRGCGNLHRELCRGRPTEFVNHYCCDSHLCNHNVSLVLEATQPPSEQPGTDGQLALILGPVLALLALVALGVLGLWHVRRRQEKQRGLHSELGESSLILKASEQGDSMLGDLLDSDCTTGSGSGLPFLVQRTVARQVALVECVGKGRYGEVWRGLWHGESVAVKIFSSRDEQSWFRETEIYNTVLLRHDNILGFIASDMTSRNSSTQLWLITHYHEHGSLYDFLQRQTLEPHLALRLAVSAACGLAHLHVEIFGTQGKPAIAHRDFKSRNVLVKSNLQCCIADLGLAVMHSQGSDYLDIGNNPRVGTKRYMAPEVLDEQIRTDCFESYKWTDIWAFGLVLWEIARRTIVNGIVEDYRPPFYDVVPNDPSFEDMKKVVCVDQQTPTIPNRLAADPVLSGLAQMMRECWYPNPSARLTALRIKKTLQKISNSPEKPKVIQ
Tyrosine-protein kinase JAK1 (Homo sapiens), sequence (P23458 whole entry, the tested form may be a part): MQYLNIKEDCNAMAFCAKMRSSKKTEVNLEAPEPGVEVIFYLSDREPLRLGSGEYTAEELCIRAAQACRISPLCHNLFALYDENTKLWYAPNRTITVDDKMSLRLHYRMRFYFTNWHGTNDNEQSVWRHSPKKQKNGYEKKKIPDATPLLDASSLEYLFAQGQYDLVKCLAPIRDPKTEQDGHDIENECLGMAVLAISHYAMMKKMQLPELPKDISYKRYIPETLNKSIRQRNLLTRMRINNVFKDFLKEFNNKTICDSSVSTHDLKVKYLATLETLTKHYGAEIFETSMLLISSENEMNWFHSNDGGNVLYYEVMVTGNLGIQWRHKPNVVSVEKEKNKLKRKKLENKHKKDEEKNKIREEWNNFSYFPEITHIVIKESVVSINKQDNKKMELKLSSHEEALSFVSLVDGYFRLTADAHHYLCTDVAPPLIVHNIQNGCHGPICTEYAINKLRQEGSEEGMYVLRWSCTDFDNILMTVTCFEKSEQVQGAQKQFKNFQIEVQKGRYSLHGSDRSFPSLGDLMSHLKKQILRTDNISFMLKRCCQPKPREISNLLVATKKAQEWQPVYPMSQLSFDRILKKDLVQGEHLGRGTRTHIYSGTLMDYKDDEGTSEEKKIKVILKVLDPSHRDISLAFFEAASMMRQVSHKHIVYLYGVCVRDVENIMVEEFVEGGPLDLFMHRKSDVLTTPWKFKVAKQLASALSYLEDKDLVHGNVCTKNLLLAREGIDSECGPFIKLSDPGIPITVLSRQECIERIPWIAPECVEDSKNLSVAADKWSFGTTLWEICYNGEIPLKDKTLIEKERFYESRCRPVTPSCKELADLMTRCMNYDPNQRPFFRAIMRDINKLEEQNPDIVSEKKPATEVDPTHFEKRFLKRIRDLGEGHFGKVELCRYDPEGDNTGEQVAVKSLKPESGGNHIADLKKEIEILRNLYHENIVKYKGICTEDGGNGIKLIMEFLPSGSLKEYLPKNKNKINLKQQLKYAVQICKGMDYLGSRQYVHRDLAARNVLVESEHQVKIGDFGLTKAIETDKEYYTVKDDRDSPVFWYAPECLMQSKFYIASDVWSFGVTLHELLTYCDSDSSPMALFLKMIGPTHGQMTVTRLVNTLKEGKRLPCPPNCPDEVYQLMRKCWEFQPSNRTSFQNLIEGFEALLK
Fibroblast growth factor receptor 4 (Homo sapiens), sequence (P22455 22-802 limits assumed): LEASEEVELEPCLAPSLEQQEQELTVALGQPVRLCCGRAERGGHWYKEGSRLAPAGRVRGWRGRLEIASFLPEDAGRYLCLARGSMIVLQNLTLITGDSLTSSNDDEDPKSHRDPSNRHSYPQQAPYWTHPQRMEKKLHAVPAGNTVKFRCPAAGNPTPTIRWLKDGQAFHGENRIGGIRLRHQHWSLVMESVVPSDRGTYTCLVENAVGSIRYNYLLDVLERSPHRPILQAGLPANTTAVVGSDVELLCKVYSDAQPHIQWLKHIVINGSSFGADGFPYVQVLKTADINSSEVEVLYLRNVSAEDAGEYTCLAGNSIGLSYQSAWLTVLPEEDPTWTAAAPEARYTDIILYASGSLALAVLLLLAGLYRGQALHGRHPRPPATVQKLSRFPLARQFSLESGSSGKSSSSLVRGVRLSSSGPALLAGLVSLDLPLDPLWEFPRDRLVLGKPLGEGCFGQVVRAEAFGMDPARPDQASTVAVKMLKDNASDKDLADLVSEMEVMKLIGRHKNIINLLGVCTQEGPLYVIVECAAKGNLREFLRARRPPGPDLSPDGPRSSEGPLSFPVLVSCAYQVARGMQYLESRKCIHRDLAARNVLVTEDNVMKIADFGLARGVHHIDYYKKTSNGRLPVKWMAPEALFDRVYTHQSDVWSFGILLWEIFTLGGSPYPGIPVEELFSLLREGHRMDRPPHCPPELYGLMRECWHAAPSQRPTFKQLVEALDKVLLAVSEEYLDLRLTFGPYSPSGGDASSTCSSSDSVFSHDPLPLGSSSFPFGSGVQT

## CCN1CCN(Cc2ccc(NC(=O)c3ccc(C)c(Oc4ccnc5[nH]ccc45)c3)cc2C(F)(F)F)CC1
[1]
  inhibition: 84.8%
[2]
  inhibition: inactive
[3]
  inhibition: 17.4%
[4]
  inhibition at 1 µM: -3.2%
[5]
  inhibition: 2.9%

## CNc1cc(Oc2cc(C(=O)Nc3cc(N4CCN(C)CC4)cc(C(F)(F)F)c3)ccc2C)ncn1
[6]
  inhibition: -3.8%

## CCN1CCN(Cc2ccc(NC(=O)c3ccc(C)c(/C=C/c4cnc5[nH]ccc5c4OC)c3)cc2C(F)(F)F)CC1
[7]
  inhibition: 20.9%
[8]
  inhibition: 6.4%
[9]
  residual activity: 8.1%
[10]
  residual activity: 29%
[11]
  inhibition: 100%

Source: ChEMBL document CHEMBL5696442, “Discovery of type II inhibitors of TGFβ-activated kinase 1 (TAK1) and mitogen-activated protein kinase kinase kinase kinase 2 (MAP4K2)” (J Med Chem, 2015)
